Assay results from the supplement of paper PMC10307832.

Key:
Assay in all cases: relative viability (nuclei count vs DMSO), 5 days (fraction); higher = more cells survive
LCLC-103H = test system: LCLC-103H
Summary of the method: (§1)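 After 5 days of treatment, lung cancer cells in 1536-well plates were fixed and stained in a single step (final 0.05% Triton X-100, 1% formaldehyde, 1 ug/ml Hoechst) and their nuclei counted on 4× images. Treatment had been applied by pin tool the day after seeding as one drug alone or as a fixed anchor-drug dose with five library-drug doses (not always all listed) in √10 steps. Relative viability is the nuclei count of treated wells divided by that of vehicle wells, and values are medians of duplicate plates.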

UMC-11 = test system: UMC-11
Summary of the method: as §1

NCI-H1648 = test system: NCI-H1648
Summary of the method: as §1

EKVX = test system: EKVX
Summary of the method: as §1

NCI-H1755 = test system: NCI-H1755
Summary of the method: as §1

NCI-H1395 = test system: NCI-H1395
Summary of the method: as §1

HCC-44 = test system: HCC-44
Summary of the method: as §1

HCC-15 = test system: HCC-15
Summary of the method: as §1

| SMILES | relative viability (LCLC-103H; first compound 0.005 µM) | relative viability (LCLC-103H; first compound 0.01581 µM) | relative viability (LCLC-103H; first compound 0.05 µM) | relative viability (LCLC-103H; first compound 0.1581 µM) | relative viability (LCLC-103H; first compound 0.5 µM) | relative viability (UMC-11; first compound 0.005 µM) | relative viability (UMC-11; first compound 0.01581 µM) | relative viability (UMC-11; first compound 0.05 µM) | relative viability (UMC-11; first compound 0.1581 µM) | relative viability (UMC-11; first compound 0.5 µM) | relative viability (NCI-H1648; first compound 0.005 µM) | relative viability (NCI-H1648; first compound 0.01581 µM) | relative viability (NCI-H1648; first compound 0.05 µM) | relative viability (NCI-H1648; first compound 0.1581 µM) | relative viability (NCI-H1648; first compound 0.5 µM) | relative viability (EKVX; first compound 0.005 µM) | relative viability (EKVX; first compound 0.01581 µM) | relative viability (EKVX; first compound 0.05 µM) | relative viability (EKVX; first compound 0.5 µM) | relative viability (NCI-H1755; first compound 0.005 µM) | relative viability (NCI-H1755; first compound 0.01581 µM) | relative viability (NCI-H1755; first compound 0.05 µM) | relative viability (NCI-H1755; first compound 0.1581 µM) | relative viability (NCI-H1755; first compound 0.5 µM) | relative viability (NCI-H1395; first compound 0.005 µM) | relative viability (NCI-H1395; first compound 0.01581 µM) | relative viability (NCI-H1395; first compound 0.05 µM) | relative viability (NCI-H1395; first compound 0.1581 µM) | relative viability (NCI-H1395; first compound 0.5 µM) | relative viability (HCC-44; first compound 0.005 µM) | relative viability (HCC-44; first compound 0.01581 µM) | relative viability (HCC-44; first compound 0.05 µM) | relative viability (HCC-44; first compound 0.1581 µM) | relative viability (HCC-44; first compound 0.5 µM) | relative viability (HCC-15; first compound 0.005 µM) | relative viability (HCC-15; first compound 0.01581 µM) | relative viability (HCC-15; first compound 0.05 µM) | relative viability (HCC-15; first compound 0.1581 µM) | relative viability (HCC-15; first compound 0.5 µM) |
| --- | --- | --- | --- | --- | --- | --- | --- | --- | --- | --- | --- | --- | --- | --- | --- | --- | --- | --- | --- | --- | --- | --- | --- | --- | --- | --- | --- | --- | --- | --- | --- | --- | --- | --- | --- | --- | --- | --- | --- |
| Nc1ccn([C@@H]2O[C@H](CO)[C@@H](O)[C@@H]2O)c(=O)n1 [Cytarabine] + CC(=O)Nc1cccc(-n2c(=O)n(C3CC3)c(=O)c3c(Nc4ccc(I)cc4F)n(C)c(=O)c(C)c32)c1 [Trametinib] (partner 0.02 µM) | 0.692 | 0.687 | 0.671 | 0.682 | 0.742 | 0.487 | 0.424 | 0.373 | 0.216 | 0.183 | 0.419 | 0.4 | 0.44 | 0.36 | 0.373 | 0.584 | 0.285 | 0.295 | 0.167 | 0.827 | 0.76 | 0.681 | 0.512 | 0.407 | 1.06 | 1.02 | 0.591 | 0.524 | 0.436 | 1.08 | 1.03 | 1.08 | 1.04 | 1.01 | 0.396 | 0.281 | 0.381 | 0.362 | 0.357 |
| Nc1ccn([C@@H]2O[C@H](CO)[C@@H](O)[C@@H]2O)c(=O)n1 [Cytarabine] + CC(=O)c1c(C)c2cnc(Nc3ccc(N4CCNCC4)cn3)nc2n(C2CCCC2)c1=O [Palbociclib] (partner 0.5 µM) | 0.488 | 0.429 | 0.498 | 0.439 | 0.492 | 0.371 | 0.304 | 0.263 | 0.236 | 0.219 | 0.29 | 0.283 | 0.263 | 0.308 | 0.273 | 0.366 | 0.403 | 0.296 | 0.207 | 0.428 | 0.422 | 0.434 | 0.377 | 0.414 | 0.599 | 0.594 | 0.492 | 0.406 | 0.345 | 0.997 | 0.942 | 0.911 | 0.806 | 0.812 | 0.743 | 0.673 | 0.835 | 0.671 | 0.514 |
| Nc1ccn([C@@H]2O[C@H](CO)[C@@H](O)[C@@H]2O)c(=O)n1 [Cytarabine] + Nc1nc2[nH]cc(CCc3ccc(C(=O)N[C@@H](CCC(=O)O)C(=O)O)cc3)c2c(=O)[nH]1 [Pemetrexed] (partner 0.2 µM) | 0.458 | 0.467 | 0.497 | 0.422 | 0.456 | 0.551 | 0.491 | 0.428 | 0.226 | 0.195 | 0.563 | 0.733 | 0.838 | 0.653 | 0.515 | 0.473 | 0.364 | 0.361 | 0.362 | 0.472 | 0.453 | 0.381 | 0.336 | 0.351 | 0.798 | 0.566 | 0.638 | 0.361 | 0.326 | 0.717 | 0.629 | 0.67 | 0.751 | 0.774 | 0.249 | 0.215 | 0.226 | 0.225 | 0.222 |
